Test results: patent publication US20100093531A1 (priority 2007, published 2010)
Read-outs that look alike come from different tables or passages of the source.

Key:
[1] = system: Plasmopara viticola; assay: Fungicidal control of grape downy mildew caused by Plasmopara viticola (greenhouse); assay type: in vivo; details: individual active compound
Procedure: (§1) Preparation: The spray solutions were prepared in several steps:
(§2) A stock solution was prepared: a mixture of acetone and/or DMSO and the wetting agent/emulsifier Uniperol, which is based on ethoxylated alkylphenoles, in a relation (volume) solvent-emulsifier of 99 to 1 was added to 25 mg of the compound to give a total of 10 ml. Water was then added to total volume of 100 ml.
(§3) This stock solution was diluted with the described solvent-emulsifier-water mixture to the given concentration.
Grape cuttings were grown in pots to the 4 to 5 leaf stage. These plants were sprayed to run-off with an aqueous suspension, containing the concentration of active ingredient or their mixture mentioned in the table below. The plants were allowed to air-dry. The next day they were inoculated with an aqueous spore suspension of Plasmopara viticola by spraying it at the lower leaf-side. Then the trial plants were immediately transferred for 24 h to a humid chamber with 22-24° C. and a relative humidity close to 100%. For a period of 5 days, cultivation followed in a greenhouse at 20-25° C. and a relative humidity about 50-80%. To stimulate the outbreak of the disease symptoms, the plants were transferred to a humid chamber again for 24 hours. Then the extent of fungal attack on the lower leaf surface was visually assessed as % diseased leaf area.
(§4) Evaluation was carried out analogously to example 1.

[2] = system: Phytophthora infestans; assay: microbe, parasite or virus in culture; assay type: cell-based; details: for Efficacy in % of the untreated control: individual active compound, microtiter test, day 7
[3] = system: Phytophthora infestans; assay type: in vivo; details: individual active compound, tomato, 6 days after inoculation
[4] = system: Phakopsora pachyrhizi; assay: Curative control of soy bean rust on soy beans caused by Phakopsora pachyrhizi (greenhouse); assay type: in vivo; details: individual active compound, 14 days
Procedure: as §1, §2, §3
Leaves of pot-grown soy bean seedlings were inoculated with spores of Phakopsora pachyrhizi. To ensure the success the artificial inoculation, the plants were transferred to a humid chamber with a relative humidity of about 95% and 23 to 27° C. for 24 h. The next day the plants were sprayed to run-off with an aqueous suspension, containing the concentration of active ingredient as described below. The plants were allowed to air-dry. Then the trial plants were cultivated for 14 days in a greenhouse chamber at 23-27° C. and a relative humidity between 60 and 80%. The extent of fungal attack on the leaves was visually assessed as % diseased leaf area.
as §4

[5] = system: Septoria tritici; assay: Activity against Septoria tritici in the microtiter test; assay type: cell-based; details: individual active compound, day 7
[6] = system: Botrytis cinerea; assay: Preventative control of grey mold (Botrytis cinerea) on leaves of green pepper (greenhouse); assay type: in vivo; details: individual active compound, 5 days after inoculation
Procedure: as §1, §2, §3
Young seedlings of green pepper were grown in pots to the 2 to 3 leaf stage. These plants were sprayed to run-off with an aqueous suspension, containing the concentration of active ingredient or their mixture mentioned in the table below. The next day the treated plants were inoculated with a spore suspension of Botrytis cinerea in a 2% aqueous biomalt solution. Then the trial plants were immediately transferred to a dark, humid chamber. After 5 days at 22 to 24° C. and a relative humidity close to 100% the extent of fungal attack on the leaves was visually assessed as % diseased leaf area.
as §4

[7] = Phytophthora infestans, 168 h, read-out: Efficacy in % of the untreated control

For `CC1(C)C(C=C(Cl)Cl)C1C(=O)OC(C#N)c1cccc(Oc2ccccc2)c1` (stereo not drawn) [α-Cypermetrin], the “Efficacy in % of the untreated control” value ([1]; 63 ppm in the spray liquor) was 0%.

In the case of `CN/C(=N\[N+](=O)[O-])NCc1cnc(Cl)s1` [Clothianidin], the inhibition of growth at 1 ppm [2, 7] is reported as 2%, the inhibition of growth at 4 ppm [2, 7] is reported as 2% and the inhibition of growth at 16 ppm [2, 7] is reported as 11%.

In the case of `CNC(=O)Oc1cccc2c1OC(C)(C)C2` [Carbofuran, reference compound], the “Efficacy in % of the untreated control” value ([3]; 16 ppm in the spray liquor) is reported as 0%, the “Efficacy in % of the untreated control” value ([4]; 16 ppm in the spray liquor) is reported as 0% and the inhibition of growth at 1 ppm [2, 7] is reported as 6%. The inhibition of growth at 4 ppm [2, 7] was 8% and the inhibition of growth at 16 ppm [2, 7] was 12%.

With `CC1(C)C(C=C(Cl)Cl)C1C(=O)OC(C#N)c1cccc(Oc2ccccc2)c1` (stereo not drawn) [α-Cypermethrin] the “Efficacy in % of the untreated control” value ([5]; 63 ppm) was 9%.

In the case of `CCc1nc2ncnn2c(N)c1CCC(C)CC(C)(C)C` (stereo not drawn) [Tab. 1, # I-113, 5-ethyl-6-(3,5,5-trimethylhexyl)[1,2,4]triazolo[1,5-a]pyrimidin-7-ylamine], the “Efficacy in % of the untreated control” value ([3]; 4 ppm in the spray liquor) is reported as 22% and the inhibition of growth at 4 ppm [2, 7] is reported as 11%.

`C/C(=N\C#N)N(C)Cc1ccc(Cl)nc1` [Acetamipyrid] was tested, and the “Efficacy in % of the untreated control” value ([1]; 16 ppm in the spray liquor) was 0%, the “Efficacy in % of the untreated control” value ([2]; 4 ppm) was 7% and the “Efficacy in % of the untreated control” value ([2]; 16 ppm) was 9%.

In the case of `CCCCCCCCc1c(CC)nc2ncnn2c1N` [Tab. 1, I-110, 5-ethyl-6-octyl-[1,2,4]triazolo[1,5-a]pyrimidin-7-ylamine], the inhibition of growth at 1 ppm [2, 7] is reported as 7%.

With `CCCCCCCCc1nc2ncnn2c(N)c1CC` [Tab. 1, # I-290, 6-ethyl-5-octyl-[1,2,4]triazolo[1,5-a]pyrimidin-7-ylamine] the “Efficacy in % of the untreated control” value ([1]; 4 ppm in the spray liquor) was 0%, the “Efficacy in % of the untreated control” value ([1]; 16 ppm in the spray liquor) was 56% and the “Efficacy in % of the untreated control” value ([6]; 16 ppm in the spray liquor) was 0%.

`N#Cc1nn(-c2c(Cl)cc(C(F)(F)F)cc2Cl)c(N)c1[S+]([O-])C(F)(F)F` (stereo not drawn) [Fipronil, reference compound] was tested, and the “Efficacy in % of the untreated control” value ([3]; 16 ppm in the spray liquor) was 0%, the “Efficacy in % of the untreated control” value ([3]; 63 ppm in the spray liquor) was 0% and the “Efficacy in % of the untreated control” value ([1]; 16 ppm in the spray liquor) was 0%. The “Efficacy in % of the untreated control” value ([6]; 63 ppm in the spray liquor) was 10%, the inhibition of growth at 1 ppm [2, 7] was 1% and the inhibition of growth at 4 ppm [2, 7] was 16%. For the same compound, the inhibition of growth at 16 ppm [2, 7] was 20%.

In the case of `O=[N+]([O-])NC1=NCCN1Cc1ccc(Cl)nc1` [Imidacloprid, reference compound], the “Efficacy in % of the untreated control” value ([3]; 16 ppm in the spray liquor) is reported as 22%, the inhibition of growth at 1 ppm [2, 7] is reported as 5% and the inhibition of growth at 4 ppm [2, 7] is reported as 6%. The inhibition of growth at 16 ppm [2, 7] was 11%.

In the case of `N#Cc1ccc(C/C(=N\NC(=O)Nc2ccc(OC(F)(F)F)cc2)c2cccc(C(F)(F)F)c2)cc1` [Metaflumizon], the “Efficacy in % of the untreated control” value ([1]; 16 ppm in the spray liquor) is reported as 0%, the “Efficacy in % of the untreated control” value ([2]; 4 ppm) is reported as 6% and the “Efficacy in % of the untreated control” value ([2]; 16 ppm) is reported as 12%. The “Efficacy in % of the untreated control” value ([5]; 63 ppm) was 0%.

With `Cc1nc2ncnn2c(N)c1-c1ccc(Cl)c(Cl)c1` [Tab. 1, I-9, 6-(3,4-dichlorophenyl)-5-methyl-[1,2,4]triazolo[1,5-a]pyrimidin-7-ylamine] the “Efficacy in % of the untreated control” value ([1]; 4 ppm in the spray liquor) was 0%, the inhibition of growth at 1 ppm [2, 7] was 64% and the “Efficacy in % of the untreated control” value ([5]; 16 ppm) was 12%.

`CC1(C)C(C=C(Cl)Cl)C1C(=O)OC(C#N)c1cccc(Oc2ccccc2)c1` (stereo not drawn) [alpha-Cypermethrin] gave an inhibition of growth at 4 ppm [2, 7] of 7% and an inhibition of growth at 16 ppm [2, 7] of 9%.

For `CCNC(=NNc1c(Cl)cc(C(F)(F)F)cc1Cl)C1(C)CC1(Cl)Cl` (stereo not drawn) [A.23-1, N-R′-2,2-dihalo-1-R″cyclo-propanecarboxamide-2-(2,6-dichloro-α,α,α-fluoro-p-tolyl)hydrazone, wherein R′ is ethyl, halo is chloro, and R″ is methyl], the “Efficacy in % of the untreated control” value ([4]; 63 ppm in the spray liquor) was 0%, the “Efficacy in % of the untreated control” value ([2]; 1 ppm) was 10% and the “Efficacy in % of the untreated control” value ([2]; 4 ppm) was 15%. For the same compound, the “Efficacy in % of the untreated control” value ([2]; 16 ppm) was 15%.

With `CCCCCCCCc1c(COC)nc2ncnn2c1N` [Tab. 1, # I-245, 5-methoxymethyl-6-octyl-[1,2,4]triazolo[1,5-a]pyrimidin-7-ylamine] the “Efficacy in % of the untreated control” value ([3]; 16 ppm in the spray liquor) was 0%, the “Efficacy in % of the untreated control” value ([4]; 4 ppm in the spray liquor) was 0% and the “Efficacy in % of the untreated control” value ([4]; 16 ppm in the spray liquor) was 0%. For the same compound, the inhibition of growth at 0.25 ppm [2, 7] was 10% and the “Efficacy in % of the untreated control” value ([5]; 16 ppm) was 4%.
